Test results reported in the NIST ThermoML archive (doi:10.1016/j.tca.2014.08.033).
± gives the expanded uncertainty stated by the source.

Settings: Liquid, DSC

c1cncc(C2CCCCN2)c1 (configuration not stated) [(.+-.)-anabasine]
Settings	vapor or sublimation pressure [kPa]
478 K	14.95 ± 1.2
488 K	19.9 ± 1.6
502.9 K	29.84 ± 2.3
523 K	49.73 ± 3.9
543.5 K	79.59 ± 6.2
555.1 K	99.57 ± 7.7
602.5 K	248.35 ± 19
631.3 K	398.33 ± 31
640.7 K	468.91 ± 36
644.3 K	498.63 ± 39

O [water]
Settings	vapor or sublimation pressure [kPa]
354.7 K	49.7 ± 3.9
366.85 K	79.6 ± 6.2
373.47 K	100.66 ± 7.8
406.69 K	298.53 ± 23
425.39 K	498.99 ± 39

CN1CCC[C@H]1c1cccnc1 [(-)-3-(N-methylpyrrolidino)pyridine]
Settings	vapor or sublimation pressure [kPa]
447.7 K	14.96 ± 1.2
457.2 K	19.93 ± 1.6
471.1 K	29.87 ± 2.3
490.6 K	49.83 ± 3.9
510.1 K	79.61 ± 6.2
520.4 K	99.84 ± 7.7
566.4 K	247.84 ± 19
594.8 K	397.81 ± 31
609.3 K	500.02 ± 39
617.8 K	568.97 ± 44

CCCCCCCCCCCCCCCC [hexadecane]
Settings	vapor or sublimation pressure [kPa]
486.1 K	14.78 ± 1.2
529.6 K	49.76 ± 3.9
549.3 K	79.6 ± 6.2
560.5 K	101.35 ± 7.9
560.9 K	102.04 ± 7.9

CN1C(=O)CC[C@H]1c1cccnc1 [(S)-cotinine]
Settings	vapor or sublimation pressure [kPa]
537.7 K	14.95 ± 1.2
548.4 K	19.9 ± 1.6
564.2 K	29.82 ± 2.3
585.6 K	49.74 ± 3.9
601.3 K	69.56 ± 5.4
607.4 K	79.5 ± 6.2
619.2 K	101.32 ± 7.9
655.4 K	197.04 ± 15
669.7 K	247.52 ± 19

Cc1ccccc1 [toluene]
Settings	vapor or sublimation pressure [kPa]
327.6 K	14.9 ± 1.2
360.7 K	49.6 ± 3.9
375.8 K	79.3 ± 6.2
383.5 K	100.66 ± 7.8
384.3 K	102.73 ± 8
451 K	498.3 ± 39
451.5 K	499.9 ± 39
490.4 K	1009.3 ± 78
